Laboratory results from BindingDB's records for patent US12054475 (Kayothera, 2024).

Key:
Retinal dehydrogenase 2 [1] = biological target: T1, Retinal dehydrogenase 2 (Homo sapiens, UniProt O94788); test: Aldh1a2 Enzyme Inhibition Assay
T1 sequence (O94788 whole entry): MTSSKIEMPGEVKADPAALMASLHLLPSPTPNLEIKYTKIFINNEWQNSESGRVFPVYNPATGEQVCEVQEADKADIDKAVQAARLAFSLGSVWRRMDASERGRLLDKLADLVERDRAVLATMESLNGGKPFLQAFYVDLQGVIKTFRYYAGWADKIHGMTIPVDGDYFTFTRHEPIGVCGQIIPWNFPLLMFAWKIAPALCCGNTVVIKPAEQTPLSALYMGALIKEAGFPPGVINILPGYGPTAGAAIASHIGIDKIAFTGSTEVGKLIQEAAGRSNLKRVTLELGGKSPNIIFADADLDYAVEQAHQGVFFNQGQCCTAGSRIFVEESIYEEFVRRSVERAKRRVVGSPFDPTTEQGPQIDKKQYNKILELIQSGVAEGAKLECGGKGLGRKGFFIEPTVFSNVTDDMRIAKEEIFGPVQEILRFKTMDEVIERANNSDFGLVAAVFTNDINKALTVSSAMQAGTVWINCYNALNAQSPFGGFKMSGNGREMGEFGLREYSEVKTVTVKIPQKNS

Retinal dehydrogenase 2 [2] = biological target: T2, Retinal dehydrogenase 2 (UniProt Q62148); test: Aldh1a2 Enzyme Inhibition Assay
T2 sequence (Q62148 whole entry): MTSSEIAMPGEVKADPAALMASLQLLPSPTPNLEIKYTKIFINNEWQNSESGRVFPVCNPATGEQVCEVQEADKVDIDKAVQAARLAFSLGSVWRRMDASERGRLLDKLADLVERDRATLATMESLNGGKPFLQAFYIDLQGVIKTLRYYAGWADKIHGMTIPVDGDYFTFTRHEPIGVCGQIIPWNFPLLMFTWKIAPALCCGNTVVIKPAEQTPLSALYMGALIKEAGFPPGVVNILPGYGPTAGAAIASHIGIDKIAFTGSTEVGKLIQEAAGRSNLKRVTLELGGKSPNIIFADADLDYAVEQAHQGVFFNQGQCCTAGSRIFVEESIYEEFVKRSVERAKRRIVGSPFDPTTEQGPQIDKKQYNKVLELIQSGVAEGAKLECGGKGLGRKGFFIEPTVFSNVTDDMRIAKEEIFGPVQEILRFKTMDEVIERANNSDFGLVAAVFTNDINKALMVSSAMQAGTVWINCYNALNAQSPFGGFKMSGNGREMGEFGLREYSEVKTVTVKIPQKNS

IC50 (Retinal dehydrogenase 2 [1]): > 10 µM | IC50 (Retinal dehydrogenase 2 [2]): > 10 µM
Compound: CCC1COCCN1C(=O)Nc1cc(C)c2c(c1)CCC(=O)N2 (racemic) [US12054475, Compound 193]
